# Earlier results, collected in patent US20030129188A1, “Integrin targeting compounds” (The Scripps Research Institute, priority 2001, published 2003).
# Details: more potent than doxorubicin itself
compound,measurement,value
COc1cccc2c1C(=O)c1c(O)c3c(c(O)c1C2=O)C[C@@](O)(C(=O)CO)C[C@@H]3O[C@H]1C[C@H](N2C=CCC2)[C@H](O)[C@H](C)O1 [2-pyrrolinodoxorubicin],potency relative to doxorubicin,500-1000 times
